Common to all, as to test: NCI tumour cell line growth inhibition, 48 h
In assay [1] the test system is SK-OV-3 ovarian.
For assay [2], the system named is EKVX NSCLC.
In assay [3] the test system is NCI-H23 lung.
The subject of assay [4] is SW-620 colon.
Assay [5] concerns SF-539 CNS.
In assay [6] the test system is UO-31 renal.
Assay [7] concerns K-562 leukemia.
Assay [8] deals with UACC-62 melanoma.
For assay [9], the system named is A549 NSCLC.
In assay [10] the test system is NCI-H226 lung.

Each structure is given as a SMILES string. Values joined by “and” are separate entries in the source; they are usually repeats but may differ in a detail not shown here. Equal entries are not always repeated.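 Five compound concentrations were applied to cells in 96-well plates for 48 hours; endpoints were derived by simple linear interpolation of the resulting dose-response curve. The concentration for 50% growth inhibition is given as GI50. TGI is the concentration that stops growth completely.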

Consider `COc1cc2c(cc1OC)-c1ncc3cc(OC)c(OC)cc3c1C2`, for which the GI50 in [1], in [2], in assay [3], in assay [4], in [5] and in [6] was above 50 µM in each case. In addition, the GI50 in assay [7], in assay [8] and in assay [9] was above 50 µM each time. Also, the TGI in assay [1], in [2], in assay [3], in assay [4], in assay [5] and in [6] was above 50 µM in each case. For the same molecule, the TGI in assay [7], in assay [8] and in assay [9] was above 50 µM throughout.
As for `CCOC(=O)NC(=O)c1cn(C2OC(COC(=O)CCCCCCCCC(=O)OCC3OC(n4cc(C(=O)NC(=O)OCC)c(=O)[nH]c4=O)C4OC(C)(C)OC34)C3OC(C)(C)OC32)c(=O)[nH]c1=O` (stereo not drawn), the TGI in assay [2], in assay [3], in assay [4], in assay [5], in assay [6] and in assay [10] was above 100 µM in each case. Moreover, the TGI in assay [7], in assay [8] and in assay [9] was above 100 µM throughout.
With `O=C(CC1SC(=Nc2ccccc2Cl)NC1=O)Nc1ccc(Cl)cc1` (stereo not drawn), the TGI is above 100 µM in assay [1]; above 100 µM in assay [2]; above 100 µM in assay [3]; 28.4 µM in [4]; above 100 µM in assay [5]; above 100 µM in [6]. For the same molecule, the TGI in assay [7], in assay [8] and in [9] was above 100 µM each time.
Consider `CCCCCCC(O)C(O)CCC(O)C1CCC(CCCCC(O)CC2=CC(C)OC2=O)O1` (stereo not drawn), for which the GI50 in assay [2] is 0.291 µM; in [3], 2.86 µM; in [4] it was 36.5 µM; in assay [5], above 100 µM; in assay [6], 16 µM; in assay [10], 15.2 µM. In addition, the GI50 in assay [9] was 10.6 µM. In addition, the TGI in [2] is 12 µM; in assay [3] it was 40.1 µM; in assay [4], above 100 µM; in assay [5], above 100 µM; in [6], 7.75 µM and 35.2 µM; in assay [10], 34.7 µM. In addition, the results for the TGI in [7] and in assay [9] were 27.6 µM and 35.3 µM, respectively.
As for `COc1c(N2CCN(CN3C(=O)C(=O)c4ccccc43)C(C)C2)c(F)cc2c(=O)c(C(=O)O)cn(C3CC3)c12` (stereo not drawn), the GI50 in [2] was above 100 µM; in assay [3] it was above 100 µM; in [4] it was 33.5 µM; in assay [5], above 100 µM; in [6] it was above 100 µM; in [10], above 100 µM. Besides, the GI50 in [7] was 47 µM; in assay [8], 47.5 µM; in [9], above 100 µM. Besides, the TGI in assay [2], in [3], in assay [4], in assay [5], in [6] and in assay [10] was above 100 µM throughout. Besides, the TGI in assay [7], in assay [8] and in assay [9] was above 100 µM each time.
For the molecule `CCC(C)(C)NS(=O)(=O)c1ccccc1`, the TGI in assay [1], in assay [2], in assay [3], in [4], in assay [5] and in assay [6] was above 100 µM throughout. In addition, the TGI in assay [7], in [8] and in [9] was above 100 µM each time.
As to `O=C(Nc1ccc(N2CCNCC2)cn1)c1[nH]ncc1Nc1ncnc2sccc12`, the GI50 in assay [1] was 10.6 µM; in assay [2] it was 2.91 µM; in assay [3], 2.02 µM; in [4], 1.54 µM; in assay [5] it was 1.69 µM; in [6], 14.4 µM. The GI50 in assay [10] is 2.62 µM; in assay [8], 2.6 µM; in [9] it was 1.66 µM. In addition, the TGI in assay [1] came out at 25.7 µM; in assay [2] it was 13.5 µM; in [3] it was 4.75 µM; in assay [4], 3.19 µM; in [5], 3.39 µM; in [6] it was 32 µM. In addition, the TGI in [10] was 9.05 µM; in assay [8], 7.33 µM; in [9] it was 3.45 µM.
With `Cc1ccc(-n2c3c(c4c(CN)c(O)ccc42)CCc2ccccc2C3=O)cc1`, the GI50 was 18.1 µM in assay [1]; 12.4 µM in [2]; 14.1 µM in assay [3]; 2.48 µM in assay [4]; 16.6 µM in assay [5]; 8.2 µM in assay [6]. Besides, the figures for the GI50 in assay [10], in assay [8] and in assay [9] were 18.2 µM, 14 µM and 18.7 µM, respectively. Besides, the TGI in [1] was determined as 34.4 µM; in assay [2] it was 28.5 µM; in assay [3] it was 28.5 µM; in [4], 8.19 µM; in assay [5], 36.1 µM; in assay [6], 22.1 µM. In addition, the TGI in assay [10] turned out to be 36.6 µM; in assay [8], 27 µM; in assay [9] it was 35.8 µM.
In the case of `CC(C)c1cc(C(=O)[O-])c(O)c(C(C)C)c1.CC(C)c1cc(C(=O)[O-])c(O)c(C(C)C)c1.CC(C)c1cc(C(=O)[O-])c(O)c(C(C)C)c1.CC(C)c1cc(C(=O)[O-])c(O)c(C(C)C)c1.CC(C)c1cc(C(=O)[O-])c(O)c(C(C)C)c1.CC(C)c1cc(C(=O)[O-])c(O)c(C(C)C)c1.[Cu+2].[Mn+2].[Mn+2]`, the GI50 in assay [1] was 2.61 µM; in assay [2], 23.3 µM; in assay [3], 20.1 µM; in assay [4], 14.8 µM; in [5], 22.1 µM; in assay [6], 16.5 µM. Also, the figures for the GI50 in [7], in assay [8] and in assay [9] were 12.8 µM, 15.3 µM and 11.1 µM, respectively. Further, the TGI in assay [1] was 16.1 µM; in [2], above 100 µM; in assay [3] it was 45.6 µM; in assay [4], 29.5 µM; in [5], 39.8 µM; in assay [6], 32.6 µM. Further, the TGI in assay [7] is 50.4 µM; in [8] it was 34.4 µM; in assay [9], 33.8 µM.
As for `CC(=O)Oc1cc(Cl)c(OC(C)=O)c2c(OC(C)=O)c(C)c(O[Si](C)(C)C(C)(C)C)cc12`, the TGI is 33.9 µM in [2]; 17.1 µM in assay [3]; 8.85 µM in [4]; 27.7 µM in assay [5]; 26.3 µM in assay [6]; 18.2 µM in assay [7].
Take `CCC(=O)Nc1ncnc2ncn(C(=O)CC)c12`: the TGI in assay [1], in assay [2], in assay [3], in assay [4], in assay [6] and in [7] was above 100 µM each time. Also, the TGI in assay [8] and in assay [9] was above 100 µM each time.
As to `O=c1c(-c2nc3ccccc3[nH]2)cc2ccccc2n1Cc1cn(Cc2ccccc2Cl)nn1`, the GI50 in assay [2] was 2.74 µM; in [3], 3.43 µM; in assay [4] it was 2.87 µM; in assay [5], 1.78 µM; in assay [6], 1.33 µM; in assay [10], 2.3 µM. For the same molecule, the GI50 is 3.33 µM in [7], 1.73 µM in [8] and 2.05 µM in assay [9]. For the same molecule, the TGI in [2] was 20.2 µM; in assay [3], 24.3 µM; in assay [4], 10.4 µM; in assay [5], 3.66 µM; in [6], 2.88 µM; in [10] it was 6.99 µM. Moreover, the TGI in assay [7] came to 12.9 µM; in assay [8], 3.57 µM; in assay [9], 4.38 µM.
For the molecule `COc1ccc(/C=C2\CCc3ccccc3C2=O)cc1OC`, the TGI in assay [1] was 78.9 µM; in [2], above 100 µM; in assay [3], above 100 µM; in assay [4], 82.5 µM; in assay [5], 65.9 µM; in assay [6] it was above 100 µM. Further, the TGI in assay [7] is above 100 µM; in assay [8], 34.1 µM; in assay [9] it was above 100 µM.
Regarding `Cc1ccc2c(c1)-c1oc(=O)c(-c3cc4ccccc4oc3=O)cc1C(O)O2` (stereo not drawn), the GI50 in assay [2] was 11.8 µM; in assay [3], 23.5 µM; in [4], 18.9 µM; in assay [5], 13.3 µM; in assay [6], 16.7 µM; in [10], 18.9 µM. Moreover, the GI50 in [7] was 26.2 µM; in [8] it was 17.4 µM; in [9], 29.9 µM. Besides, the TGI in [2] came out at 25.7 µM; in assay [3], 45.8 µM; in [4], 33.5 µM; in assay [5] it was 26 µM; in [6], 37.3 µM; in assay [10] it was 40.5 µM. Further, the results for the TGI in assay [7], in assay [8] and in assay [9] were 76.6 µM, 35.6 µM and above 100 µM, respectively.
Regarding `C[C@@]1(O)CCC[C@H]1n1c(=O)c(C(F)F)cc2cnc(NC3CCN(S(C)(=O)=O)CC3)nc21`, the GI50 is 1.75 µM in assay [2]; 1.43 µM in assay [3]; 0.0891 µM in [4]; 1.17 µM in assay [5]; 1.2 µM in [6]; 1.96 µM in assay [7]. The GI50 in assay [8] is 1.04 µM; in assay [9], 1.66 µM. For the same molecule, the TGI in assay [2] was 5.92 µM; in assay [3], 6.69 µM; in assay [4], 6.46 µM; in assay [5] it was 3.45 µM; in [6], 3.97 µM; in assay [7], above 100 µM. Besides, the values for the TGI in assay [8] and in [9] were 3.31 µM and above 100 µM, respectively.
Regarding `C/C(=N\NS(=O)(=O)c1c(C)cc(C)cc1C)c1ccc[n+]([O-])n1`, the TGI in assay [1] is above 100 µM; in [2], 26 µM; in [3] it was 34 µM; in [4] it was 22.3 µM; in [5], 27.7 µM; in [6], 52.8 µM. Further, the TGI in [7] is 30.2 µM; in [8] it was 31.5 µM; in [9], above 100 µM.
With `CC(C)C1=CC23CCC4C(C)(C(=O)O)CCCC4(C)C2CC1C1C(=O)N(c2cccc(N4C(=O)C5C6CC7C8(C)CCCC(C)(C(=O)O)C8CCC7(C=C6C(C)C)C5C4=O)c2)C(=O)C13` (stereo not drawn), the TGI in assay [2] was found to be 24.4 µM; in assay [3], 12.2 µM; in assay [4] it was 31.4 µM; in assay [5] it was 57.7 µM; in [6], 29.1 µM; in assay [10] it was 32.5 µM. Moreover, the values for the TGI in [7], in [8] and in [9] were 96.1 µM, 80.1 µM and above 100 µM, respectively.
In the case of `COc1cc2c(cc1OC)-c1ncc3cc(OC)c(OC)c(OC)c3c1C2`, the GI50 in assay [1] was 33 µM; in assay [2], 22.8 µM; in [4], 38.7 µM; in [5], 14 µM; in assay [6] it was 5.49 µM; in assay [7] it was 3.89 µM. For the same molecule, the GI50 is 7.42 µM in [8] and 32.1 µM in assay [9]. Further, the TGI was above 100 µM in assay [1]; 90.1 µM in [2]; above 100 µM in assay [4]; 34 µM in [5]; 53.6 µM in assay [6]; 48.6 µM in [7]. Moreover, the results for the TGI in assay [8] and in assay [9] were 26.8 µM and above 100 µM, respectively.
Regarding `CCOc1ncnc2ccc(Cl)c(I)c12`, the TGI in assay [1] was above 100 µM; in assay [2] it was above 100 µM; in assay [3] it was above 100 µM; in assay [4], above 100 µM; in assay [6] it was 75.5 µM; in [7], above 100 µM. Also, the TGI in [8] and in assay [9] was above 100 µM in each case.
With `Cc1nc(-n2nc(-c3ccccc3)cc2-c2ccccc2)sc1C(=O)/C=C/c1ccc(Cl)cc1`, the TGI in [1] is above 100 µM; in [2], above 100 µM; in assay [3], 34 µM; in [4], 61.1 µM; in assay [5] it was 27.4 µM; in [6] it was 21.1 µM. Also, the values for the TGI in assay [10], in assay [8] and in assay [9] were 42.1 µM, 28.7 µM and 64.9 µM, respectively.

(Values after PubChem BioAssay (NCI).)
